Calls of active or inactive are those of the source.
Columns and labels:
[1] = target: T1, Oxysterols receptor LXR-beta (Homo sapiens, UniProt P55055); assay type: functional, cell-based;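 further: agonist activity at LXR measured by a cell-based luminescence readout across a dose range, run as a counterscreen for daf-12 agonists; HEK293 cells with Gal4-LXR fusion and GAL4-driven luciferase reporter; potency for activation of Gal4-LXR reporter so compounds are agonists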
T1 sequence (P55055 whole entry): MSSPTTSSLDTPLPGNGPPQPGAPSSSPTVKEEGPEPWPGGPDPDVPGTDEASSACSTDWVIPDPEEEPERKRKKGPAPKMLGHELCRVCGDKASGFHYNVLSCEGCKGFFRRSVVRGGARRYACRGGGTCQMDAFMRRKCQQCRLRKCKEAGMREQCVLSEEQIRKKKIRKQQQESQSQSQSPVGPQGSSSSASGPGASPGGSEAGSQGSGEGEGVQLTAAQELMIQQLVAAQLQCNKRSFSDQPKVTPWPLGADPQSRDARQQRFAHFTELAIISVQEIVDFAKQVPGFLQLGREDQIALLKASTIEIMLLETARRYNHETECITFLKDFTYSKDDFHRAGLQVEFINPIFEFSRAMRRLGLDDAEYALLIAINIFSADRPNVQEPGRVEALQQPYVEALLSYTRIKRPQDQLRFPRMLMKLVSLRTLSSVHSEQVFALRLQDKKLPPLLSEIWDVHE

[2] = cells; assay type: functional, cell-based
[3] = target: T2, Trace amine-associated receptor 1 (Homo sapiens, UniProt Q96RJ0); assay: Fluorescence-based cell-based high throughput dose response assay to identify agonists of the human trace amine associated receptor 1 (TAAR1).; assay type: functional
T2 sequence (Q96RJ0 whole entry): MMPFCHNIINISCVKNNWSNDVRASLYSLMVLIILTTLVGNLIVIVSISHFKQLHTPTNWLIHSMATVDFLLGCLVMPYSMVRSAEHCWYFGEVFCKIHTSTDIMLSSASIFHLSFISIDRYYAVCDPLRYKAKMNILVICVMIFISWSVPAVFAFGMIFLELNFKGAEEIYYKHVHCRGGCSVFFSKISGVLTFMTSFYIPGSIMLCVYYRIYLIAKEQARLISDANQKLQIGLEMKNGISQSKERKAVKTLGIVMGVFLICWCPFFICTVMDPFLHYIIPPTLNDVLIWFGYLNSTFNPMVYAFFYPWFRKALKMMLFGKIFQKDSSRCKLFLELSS

[4] = target: T2, Trace amine-associated receptor 1; assay: Counterscreen for agonists of the human trace amine associated receptor 1 (hTAAR1): Fluorescence-based cell-based high throughput dose response assay to identify hTAAR1 agonist that also desensitize TAAR1 receptor response.; assay type: functional
[5] = cells; assay type: functional, cell-based; remark: listed apart in the source
[6] = target: T3, Protein skinhead-1 (Caenorhabditis elegans, UniProt P34707); assay type: functional
T3 sequence (P34707 whole entry): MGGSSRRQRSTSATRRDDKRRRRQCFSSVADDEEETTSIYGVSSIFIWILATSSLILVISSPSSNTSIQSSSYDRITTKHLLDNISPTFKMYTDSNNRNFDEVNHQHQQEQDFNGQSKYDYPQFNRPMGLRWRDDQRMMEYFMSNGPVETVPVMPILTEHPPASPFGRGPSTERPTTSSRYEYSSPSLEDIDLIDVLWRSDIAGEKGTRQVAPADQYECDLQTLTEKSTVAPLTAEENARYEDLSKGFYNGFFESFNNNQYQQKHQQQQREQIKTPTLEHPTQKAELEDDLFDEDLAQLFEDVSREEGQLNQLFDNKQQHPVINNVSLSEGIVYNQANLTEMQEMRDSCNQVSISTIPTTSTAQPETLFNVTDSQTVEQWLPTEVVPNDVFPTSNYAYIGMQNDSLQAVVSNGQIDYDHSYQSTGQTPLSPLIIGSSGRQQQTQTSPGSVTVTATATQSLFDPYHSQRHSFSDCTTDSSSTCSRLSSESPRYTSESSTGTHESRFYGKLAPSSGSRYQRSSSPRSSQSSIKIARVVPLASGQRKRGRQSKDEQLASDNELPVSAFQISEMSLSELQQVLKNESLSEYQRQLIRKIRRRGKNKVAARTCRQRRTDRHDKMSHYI

[7] = target: COUP transcription factor 2 (Homo sapiens, UniProt P24468); assay: Luminescence-based cell-based high throughput dose response assay to identify inhibitors of COUP-TFII (NR2F2).; assay type: functional;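 further: HEK293 cells transiently cotransfected with COUP-TFII expression vector and reporter; luciferase reporter luminescence driven by COUP-TFII from the pX2-168 reporter plasmid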
Sequence of COUP transcription factor 2 (P24468 whole entry): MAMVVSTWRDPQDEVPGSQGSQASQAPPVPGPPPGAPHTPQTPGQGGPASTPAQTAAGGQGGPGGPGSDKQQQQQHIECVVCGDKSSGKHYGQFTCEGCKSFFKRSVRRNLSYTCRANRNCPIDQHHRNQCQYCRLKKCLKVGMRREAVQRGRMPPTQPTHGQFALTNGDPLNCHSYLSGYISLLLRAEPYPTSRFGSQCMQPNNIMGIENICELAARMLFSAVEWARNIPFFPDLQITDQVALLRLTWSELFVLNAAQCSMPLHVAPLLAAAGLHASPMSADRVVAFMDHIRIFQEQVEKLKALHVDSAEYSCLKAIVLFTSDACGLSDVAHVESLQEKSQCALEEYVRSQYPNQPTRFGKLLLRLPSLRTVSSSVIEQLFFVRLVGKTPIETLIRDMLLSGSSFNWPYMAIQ

[8] = NIH/3T3 fibroblast cytotoxicity, dose response, cytotoxicity control for T. cruzi growth inhibitor project, cell-based, cherry-pick samples, set 2 (AID 651817); assay type: functional; conditions: NIH3T3
[9] = target: Paired box protein Pax-8 (Homo sapiens, UniProt Q06710); assay: inhibitors of PAX8-driven TPO luciferase reporter, dose response, RMG-I cells, cherry-pick (AID 687027); assay type: functional, cell-based;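 further: luciferase reporter driven by Pax8 target thyroperoxidase promoter measured by SteadyGlo luminescence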
Sequence of Paired box protein Pax-8 (Q06710 whole entry): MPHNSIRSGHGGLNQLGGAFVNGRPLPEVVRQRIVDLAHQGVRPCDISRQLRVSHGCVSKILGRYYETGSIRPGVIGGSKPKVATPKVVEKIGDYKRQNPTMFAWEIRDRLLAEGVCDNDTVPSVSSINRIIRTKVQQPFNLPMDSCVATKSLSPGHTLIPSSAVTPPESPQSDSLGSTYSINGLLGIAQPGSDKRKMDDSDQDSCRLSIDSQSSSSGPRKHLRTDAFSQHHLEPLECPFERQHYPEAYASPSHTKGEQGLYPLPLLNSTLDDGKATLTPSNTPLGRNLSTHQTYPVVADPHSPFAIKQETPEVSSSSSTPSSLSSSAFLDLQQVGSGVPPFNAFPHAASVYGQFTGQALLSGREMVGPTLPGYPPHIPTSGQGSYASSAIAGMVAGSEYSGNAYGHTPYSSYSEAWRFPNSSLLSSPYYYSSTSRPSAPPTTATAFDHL

[10] = A2780 ovarian cancer cell cytotoxicity, dose response, cytotoxicity control, plate reader, dry powder samples (AID 743046); assay type: functional, cell-based
[11] = NIH:OVCAR-3 ovarian cancer cell cytotoxicity, dose response, PAX8 inhibitor project, plate reader, dry powder samples (AID 743044); assay type: functional, cell-based
[12] = IGROV1 ovarian cancer cell cytotoxicity, dose response, PAX8 inhibitor project, plate reader, dry powder samples (AID 743043); assay type: functional, cell-based; conditions: IGROV-1
[13] = HEK293T cytotoxicity, dose response, cytotoxicity control for miR-122 modulator project, cell-based, activator set, cherry-pick (AID 720690); assay type: functional;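 further: HEK293T human cells scored for general mammalian cytotoxicity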
[14] = cytotoxicity in OVCAR8 ovarian cancer cells, dose response, PAX8 project, cell-based, plate reader, dry powder samples (AID 743197); assay type: functional; conditions: OVCAR-8
[15] = Luminescence Cell-Based Dose Retest to Confirm Inhibitors of Cancer Stem Cells. [Related pubchem assays (depositor defined):AID2717, AID2721]; assay type: functional; conditions: Homo sapiens
[16] = Shn3 3'UTR reporter inhibitors, dose response, cell-based, Clone20 osteoblasts, firefly luciferase, cherry-picked (AID 624132); assay type: functional;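 further: firefly luciferase luminescence from reporter carrying the Shn3 3'UTR in osteoblasts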
[17] = HepG2 cell cytotoxicity, dose response, cytotoxicity control for Shn3 inhibitor project, CellTiter-Glo, cherry-picked (AID 624134); assay type: functional, cell-based
[18] = control 3'UTR Renilla luciferase suppression, dose response, counter-screen for Shn3 inhibitor project, cell-based, Clone20-Shn3RL, cherry-picked (AID 624133); assay type: functional
[19] = ADAM10 inhibitors, peptide cleavage, dose response, biochemical, QFRET (AID 743254);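 further: ADAM10 enzyme with the DM2 quenched FRET peptide as substrate; EDANS fluorescence gain as the protease cuts the substrate; inhibitor potency against ADAM10 proteolytic activity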
[20] = target: Disintegrin and metalloproteinase domain-containing protein 17 (Homo sapiens, UniProt P78536); assay: ADAM17 protease inhibitors, dose response, counter-screen for ADAM10 exosite inhibitor project, biochemical, quenched FRET substrate (AID 743253)
Sequence of Disintegrin and metalloproteinase domain-containing protein 17 (P78536 whole entry, the tested form may be a part): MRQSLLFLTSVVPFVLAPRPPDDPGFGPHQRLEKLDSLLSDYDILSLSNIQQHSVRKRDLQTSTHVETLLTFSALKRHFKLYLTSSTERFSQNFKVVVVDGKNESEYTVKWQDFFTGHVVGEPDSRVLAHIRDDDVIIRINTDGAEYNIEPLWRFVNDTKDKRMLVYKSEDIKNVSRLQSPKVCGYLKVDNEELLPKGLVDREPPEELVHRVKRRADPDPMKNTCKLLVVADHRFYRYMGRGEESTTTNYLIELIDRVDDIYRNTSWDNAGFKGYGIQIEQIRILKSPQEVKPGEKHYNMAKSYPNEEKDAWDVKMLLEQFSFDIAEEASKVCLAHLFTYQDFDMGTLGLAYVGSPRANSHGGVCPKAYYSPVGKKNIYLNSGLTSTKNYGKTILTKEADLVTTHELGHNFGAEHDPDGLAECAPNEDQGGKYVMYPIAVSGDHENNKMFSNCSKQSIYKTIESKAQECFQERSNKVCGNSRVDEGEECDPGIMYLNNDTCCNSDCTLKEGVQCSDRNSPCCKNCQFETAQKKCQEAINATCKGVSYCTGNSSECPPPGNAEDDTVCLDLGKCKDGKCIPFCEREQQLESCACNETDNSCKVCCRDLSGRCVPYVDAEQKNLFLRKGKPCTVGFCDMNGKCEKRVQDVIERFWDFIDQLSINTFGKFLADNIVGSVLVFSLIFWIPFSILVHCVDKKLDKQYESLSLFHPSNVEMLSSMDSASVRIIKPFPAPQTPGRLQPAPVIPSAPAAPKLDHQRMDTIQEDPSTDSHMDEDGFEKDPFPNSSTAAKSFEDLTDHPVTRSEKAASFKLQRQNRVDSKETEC

[21] = non-specific cell cytotoxicity, dose response, cytotoxicity control for PAX8 inhibitor project, plate reader, dry powder samples (AID 743021); assay type: functional, cell-based
[22] = T. cruzi intracellular amastigote growth inhibition, dose response, imaging, CA-I/72 strain, bovine embryo skeletal muscle, dry powder (AID 651885); assay type: functional, cell-based

C/C(=N\NC(=O)OC(C)(C)C)c1ccc[nH]1
EC50 [1]: > 67.6 µM (inactive)

Cc1cc(C(=O)COC(=O)C2=NNC(=O)CC2)c(C)n1CCc1ccccc1
IC50 [2]: > 29.9 µM (inactive) | EC50 [3]: 1.58 µM (active) | IC50 [4]: 7.2 µM (active) | EC50 [5]: > 29.9 µM (inactive)

Cc1ccc(F)cc1NC(=O)Cc1nn(C)c(=O)c2ccccc12
IC50 [6]: > 100 µM (inactive) | IC50 [7]: 12.7 µM (inactive)

C[C@H]1CN([C@@H](C)CO)C(=O)Cc2cc(NS(=O)(=O)c3ccc(F)cc3)ccc2O[C@H]1CN(C)Cc1ccc(Cl)c(Cl)c1
AC50 [8]: 39 µM (inactive)

C[C@@H]1CN([C@@H](C)CO)S(=O)(=O)c2ccc(C#Cc3ccccc3F)cc2O[C@H]1CN(C)C(=O)c1ccc2c(c1)OCO2
AC50 [9]: 4.88 µM (active) | AC50 [10]: 0.765 µM (active) | AC50 [11]: 6.2 µM (active) | AC50 [12]: 28.5 µM (active) | AC50 [13]: 5.74 µM (active) | AC50 [14]: 17.7 µM (active)

C=CCC[C@H](Cc1ccc(F)cc1)C(=O)OC[C@@H](Cc1c[nH]c2ccccc12)NC(=O)[C@H](CC=C)CC(=O)N(CCO)Cc1ccccc1
AC50 [15]: 3.42 µM (active) | AC50 [16]: 8.66 µM (active) | AC50 [17]: 30.9 µM (active) | AC50 [18]: 29 µM (active) | IC50 [19]: > 7.72 µM (active) | IC50 [20]: > 69.5 µM (inactive)

C[C@H](CO)N1C[C@H](C)[C@H](CN(C)Cc2ccc3c(c2)OCO3)OCCCC[C@H](C)Oc2ccc(NC(=O)Nc3ccc(C(F)(F)F)cc3)cc2C1=O
AC50 [9]: 9.15 µM (active) | AC50 [21]: 46.4 µM (active)

C[C@@H]1CN([C@@H](C)CO)C(=O)c2cccc(NC(=O)c3ccncc3)c2O[C@H]1CN(C)Cc1ccncc1
IC50 [22]: 17.3 µM (inconclusive)

O=C(N[C@@H](Cc1cccnc1)C(=O)N1CCC[C@H]1C(=O)NCCc1ccccc1Cl)c1ccc(Cl)c(Cl)c1
IC50 [2]: > 29.9 µM (inactive) | EC50 [3]: 2.9 µM (active) | IC50 [4]: 2.6 µM (active) | EC50 [5]: > 29.9 µM (inactive)

CN1C(=O)c2cc(NC(=O)c3ccc(C(F)(F)F)cc3)ccc2OC[C@@H]2O[C@@H](CC(=O)NCc3ccc4c(c3)OCO4)CC[C@H]21
AC50 [13]: 20.3 µM (active)

CCCOc1ccc(NC(=O)CC2C(=O)N(Cc3ccccc3)C(=S)N2Cc2cccs2)cc1 (stereo not given)
IC50 [19]: 44.4 µM (inactive) | IC50 [20]: > 69.6 µM (inactive)

Reference: ChEMBL document CHEMBL1201862, “PubChem BioAssay data set” (2004)
